Legend:
[1] = biological target: T1, LexAPa S125A (Pseudomonas aeruginosa, UniProt P37452, S125A); assay: Differential scanning fluorimetry (thermal shift) on LexAPa S125A; type: binding, P. aeruginosa; conditions: A12 above 100 μM
T1 construct: Concerning full-length LexAPa ^S125A, a biphasic melting curve was obtained for the pure protein; made in house; host or cells: E. coli BL21(DE3)
Procedure: To elucidate whether A12 binds RecAPa or LexAPa, the two proteins were submitted to a thermal shift assay by DSF, in the presence of different concentrations of A12 (30–1000 μM; Figure A–C). Controls devoid of A12 were included, as well.
Fluorescence of the SyproOrange dye was measured by a StepOne Real-Time PCR System (Applied Biosystems), while increasing the temperature from 25 to 95 °C (0.5 °C/min). Normalized fluorescence intensity curves were compared to observe macroscopic differences in the recorded melting profiles, while derivative curves were analyzed to find exact protein melting temperatures (T m, corresponding to derivative curve minimum). Melting curves were repeated twice, and duplicates were considered coherent if T m differences were lower than 1 °C.

[2] = biological target: T2, RecAPa (Pseudomonas aeruginosa, UniProt P08280); assay: Isothermal titration calorimetry on RecAPa; type: binding, P. aeruginosa
T2 construct: made in house; host or cells: E. coli BL21(DE3)
T2 sequence (P08280 whole entry): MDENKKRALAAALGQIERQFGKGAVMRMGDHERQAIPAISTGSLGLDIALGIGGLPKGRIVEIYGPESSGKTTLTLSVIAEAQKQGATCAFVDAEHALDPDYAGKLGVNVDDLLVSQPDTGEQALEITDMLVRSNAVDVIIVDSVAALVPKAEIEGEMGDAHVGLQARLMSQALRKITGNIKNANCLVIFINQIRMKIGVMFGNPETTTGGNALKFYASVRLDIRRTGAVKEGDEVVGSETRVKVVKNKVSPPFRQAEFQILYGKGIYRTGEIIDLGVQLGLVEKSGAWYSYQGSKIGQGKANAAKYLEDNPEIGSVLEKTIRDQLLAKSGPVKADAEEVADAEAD
Procedure: To investigate deeper the binding of A12 to the two members of the P. aeruginosa SOS complex, ITC was performed on RecAPa and LexAPa ^S125A (Figure D,E). The integrated binding isotherms of both proteins were best fitted by a “one set of sites” model.
64 μM RecAPa and 58.5 μM LexAPa ^S125A were titrated with the selected compound (2.5 mM solution) using a Microcal PEAQ-ITC instrument (Malvern Panalytical) at 25 °C with a stirring rate of 750 rpm. Proteins and the ligand were dissolved in ITC Buffer (20 mM Tris–HCl, 150 mM NaCl, 5% v/v DMSO, pH 7.5). An initial 0.4 μL injection (excluded from data analysis) was followed by 24 injections of 1.5 μL with a spacing of 150 s between each addition. Blank experiments were performed by injecting the titrant compound in a protein-devoid ITC Buffer. Blank curves were subtracted from all of the experiments. Data were analyzed by using the MicroCal PEAQ-ITC Evaluation software (Malvern Panalytical). Integrated heat signals were fitted by a “one set of sites” binding model to obtain enthalpy changes (ΔH), dissociation constants (K D), and stoichiometry of binding.

[3] = test system: THP-1-derived macrophages; assay: Cytotoxicity assessment by MTT assay, THP-1-derived macrophages; type: cell-based, Human; conditions: combination of ciprofloxacin 0.5 μg/mL and A12 100 μg/mL, 3 h
Procedure: A549 cells were seeded in flat-bottom 96-well plates at 5 × 10^4 cells/well. THP-1 monocytes were differentiated into macrophages using PMA as described above, rested in PMA-free medium, detached by trypsinization, and seeded at 5 × 10^4 cells/well. Plates were incubated overnight to allow cell attachment. […] Test medium was then removed and replaced with fresh medium containing 0.5 mg/mL 3-(4,5-dimethylthiazol-2-yl)-2,5-diphenyltetrazolium bromide (MTT). After a 2 h incubation, the medium was discarded, formazan crystals were solubilized with 100 μL of DMSO, and absorbance was measured at 570 nm using a spectrophotometer (Varioskan LUX Multimode Microplate Reader, Thermo Fisher Scientific). Cell viability was expressed as a percentage relative to the untreated controls.

[4] = ESI-MS analysis of A12 in buffer; type: physicochemical; conditions: 2 mM A12 in FP assay buffer, no DTT
Procedure: The same analysis was conducted after treatment of A12 with 2 mM DTT (Figure B). In this sample, the MS signals corresponding to the disulfide adduct were absent, leading to the conclusion that the dimerization of A12 by the formation of a disulfide bridge can occur under physiological conditions. When in monomeric form, the compound is likely degraded and/or not detectable by MS under the tested experimental conditions.
MS analysis was carried out on 5 μL samples of compound A12 (2 mM), of the proteins 6His-LexAPa and 6His-RecAPa (50 μM), and of the same proteins incubated with 2 mM A12 (2 h incubation at 25 °C, 10% v/v DMSO in 100 mM NaHCO3 pH 7.0). Aliquots of the latter samples were treated with 5 mM dithiothreitol (DTT) for 1 h at 25 °C before being buffer-exchanged in 100 mM NaHCO3 at pH 7.0. Samples were analyzed by an electrospray ionization (ESI) mass spectrometer equipped with a Xevo G2-XS ESI-Q-TOF mass spectrometer (Waters Corporation, Milford, Massachusetts, USA). Measurements were carried out at 1.5–1.8 kV capillary voltage and 30–40 V cone voltage.

T1 sequence (P37452 2-204 S125A): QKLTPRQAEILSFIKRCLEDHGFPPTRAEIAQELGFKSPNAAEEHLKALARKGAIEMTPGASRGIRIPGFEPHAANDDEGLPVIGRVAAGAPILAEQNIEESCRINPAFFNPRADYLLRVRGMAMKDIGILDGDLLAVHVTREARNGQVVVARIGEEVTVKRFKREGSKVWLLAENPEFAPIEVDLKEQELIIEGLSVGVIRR

O=C(O)CCNc1ccccc1S [A12, 3-(2-sulfanylanilino)propanoic acid]
LexAPa S125A flexus of monophasic melting curve [1]: 52.0 °C
Kd [2]: 18 ± 3 µM
Cell viability compared to the untreated control [3]: higher than 80%
Form of A12 in solution by MS [4]: mainly exists as a disulfide-bridged self-dimer in solution

From paper PMC12706794, “Identification and Characterization of a Small-Molecule Inhibitor of the Pseudomonas aeruginosa SOS Response” (ACS Infectious Diseases, 2025)
